From paper PMC8981563 (RSC Advances, 2022)

Each compound was assayed against T1, human GPR120 (Homo sapiens, UniProt Q5NUL3) (assay: Ca2+ influx activity of CHO cells expressing human GPR120).
T1 sequence (Q5NUL3 1-361): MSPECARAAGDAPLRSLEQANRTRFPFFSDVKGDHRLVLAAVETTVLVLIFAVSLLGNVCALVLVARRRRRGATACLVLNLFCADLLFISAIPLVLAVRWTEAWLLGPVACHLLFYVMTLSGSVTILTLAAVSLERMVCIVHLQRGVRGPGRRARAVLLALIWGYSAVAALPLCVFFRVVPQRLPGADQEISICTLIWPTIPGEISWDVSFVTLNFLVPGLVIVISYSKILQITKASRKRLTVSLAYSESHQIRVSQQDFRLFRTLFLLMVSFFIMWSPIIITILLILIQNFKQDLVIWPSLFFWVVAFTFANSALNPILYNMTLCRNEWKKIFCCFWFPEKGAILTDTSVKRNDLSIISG
Type: cell-based

Structure (SMILES) | EC50
COc1cc(OCc2cc(F)ccc2-c2ccc(C)cc2)ccc1CC1SC(=O)NC1=O (stereo not shown) [Compound 3g, 5-(4-((4-Fluoro-4′-methyl-[1,1′-biphenyl]-2-yl)methoxy)-2-methoxybenzyl)thiazolidine-2,4-dione] | 122 ± 13.1 nM
Cc1ccc(-c2ccc(F)cc2COc2ccc(CC3SC(=O)NC3=O)cc2C)cc1 (stereo not shown) [Compound 6g, 5-(4-((4-Fluoro-4′-methyl-[1,1′-biphenyl]-2-yl)methoxy)-3-methylbenzyl)thiazolidine-2,4-dione] | 461 ± 36.1 nM
Cc1ccc(-c2ccc(F)cc2COc2ccc(CC3SC(=O)NC3=O)cc2F)cc1 (stereo not shown) [Compound 7g, 5-(3-Fluoro-4-((4-fluoro-4′-methyl-[1,1′-biphenyl]-2-yl)methoxy)benzyl)thiazolidine-2,4-dione] | 276 ± 20.5 nM
Cc1ccc(-c2ccc(F)cc2COc2cc(F)c(CC3SC(=O)NC3=O)c(F)c2)cc1 (stereo not shown) [Compound 9g, 5-(2,6-Difluoro-4-((4-fluoro-4′-methyl-[1,1′-biphenyl]-2-yl)methoxy)benzyl)thiazolidine-2,4-dione] | 137 ± 16.3 nM

More lines, in order of falling EC50, values ahead:

EC50 | Structure (SMILES)
182 ± 13.2 nM | Cc1ccc(-c2ccc(F)cc2COc2ccc(CC3SC(=O)NC3=O)cc2)cc1 (stereo not shown) [Compound 1g, 5-(4-((4-Fluoro-4′-methyl-[1,1′-biphenyl]-2-yl)methoxy)benzyl)thiazolidine-2,4-dione]
142 ± 12.5 nM | Cc1ccc(-c2ccc(F)cc2COc2ccc(CC3SC(=O)NC3=O)c(F)c2F)cc1 (stereo not shown) [Compound 8g, 5-(2,3-Difluoro-4-((4-fluoro-4′-methyl-[1,1′-biphenyl]-2-yl)methoxy)benzyl)thiazolidine-2,4-dione]
134 ± 11.8 nM | Cc1ccc(-c2ccc(F)cc2COc2ccc(CC3SC(=O)NC3=O)c(C)c2)cc1 (stereo not shown) [Compound 2g, 5-(4-((4-Fluoro-4′-methyl-[1,1′-biphenyl]-2-yl)methoxy)-2-methylbenzyl)thiazolidine-2,4-dione]
